Source: patent US20100167275A1, “Potassium channel mutants of the yeast Saccharomyces cerevisiae and their use for screening eukaryotic potassium channels” (sanofi-aventis Deutschland GmbH, priority 2000, published 2010)

What was measured:
[1] = molecular target: T1, human HERG1 channel (Homo sapiens, UniProt Q12809); experiment: Complementation of growth deficiency by HERG1 on culture plates in the presence of activators; type: cell-based; conditions: 2 mM CsCl, DPM 5 mM KCl pH 6.5, FIG. 4
T1 construct: expressed in transfected cells; host or cells: Saccharomyces cerevisiae Δtrk1 Δtrk2 Δtok1 (YM182 background; strain YM196), vector p423-GPD3
T1 sequence (Q12809 whole entry): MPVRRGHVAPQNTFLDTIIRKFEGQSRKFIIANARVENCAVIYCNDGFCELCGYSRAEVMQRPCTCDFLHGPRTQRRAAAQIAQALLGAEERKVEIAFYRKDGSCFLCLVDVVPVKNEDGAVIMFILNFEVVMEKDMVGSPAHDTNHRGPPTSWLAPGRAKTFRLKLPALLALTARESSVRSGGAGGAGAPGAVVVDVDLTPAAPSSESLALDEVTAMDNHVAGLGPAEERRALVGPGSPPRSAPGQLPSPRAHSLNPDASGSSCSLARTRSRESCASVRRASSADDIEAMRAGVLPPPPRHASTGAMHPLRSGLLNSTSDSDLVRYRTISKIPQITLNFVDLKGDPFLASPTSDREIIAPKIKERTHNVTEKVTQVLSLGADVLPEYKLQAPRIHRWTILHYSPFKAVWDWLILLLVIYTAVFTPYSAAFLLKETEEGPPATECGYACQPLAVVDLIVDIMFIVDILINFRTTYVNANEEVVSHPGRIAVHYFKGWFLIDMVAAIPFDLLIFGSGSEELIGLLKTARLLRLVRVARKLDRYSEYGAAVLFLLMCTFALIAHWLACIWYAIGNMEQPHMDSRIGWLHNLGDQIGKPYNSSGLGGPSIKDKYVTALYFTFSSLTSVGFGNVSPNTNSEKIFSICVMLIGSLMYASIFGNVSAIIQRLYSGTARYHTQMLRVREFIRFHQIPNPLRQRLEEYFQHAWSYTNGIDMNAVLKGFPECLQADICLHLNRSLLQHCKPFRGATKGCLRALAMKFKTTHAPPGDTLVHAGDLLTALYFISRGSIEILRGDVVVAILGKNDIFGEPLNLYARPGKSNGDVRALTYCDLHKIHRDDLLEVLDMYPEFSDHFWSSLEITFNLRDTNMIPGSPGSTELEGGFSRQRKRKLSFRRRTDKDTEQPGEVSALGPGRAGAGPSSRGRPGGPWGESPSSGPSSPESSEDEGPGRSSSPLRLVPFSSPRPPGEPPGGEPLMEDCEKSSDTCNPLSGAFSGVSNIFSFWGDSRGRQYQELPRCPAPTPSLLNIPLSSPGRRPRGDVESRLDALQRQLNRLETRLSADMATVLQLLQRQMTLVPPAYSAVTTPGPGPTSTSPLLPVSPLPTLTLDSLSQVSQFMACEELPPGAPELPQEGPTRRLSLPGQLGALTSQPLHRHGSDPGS
Source text: (§1) Each of the strains YM168 (Δtrk1 Δtrk2) and YM182 (Δtrk1 Δtrk2 Δtok1) was transformed with the human potassium channels Kv1.5 ((Fedida, D. et al, 1998); YM190 and YM195) and HERG1 ((Fedida, D. et al., 1998); YM191 and YM196) in p423-GPD3, respectively, as yeast expression vector. gpIRK1 ((Tang, W. et al., 1995); YM193 and YM198) acted as positive control in p423-GPD3 as yeast expression vector (Mumberg, D. et al., 1995; Ronicke, V. et al., 1997). The blank vector p423-GPD3 (YM189 and YM194) acted as negative control. The transformed yeast strains were plated onto (−)HIS/80 mM KCl medium. After this, patches of single colonies were replica-plated onto DPM/5 mM KCl (pH 6.5) to check the capacity of complementing the potassium deficiency.
(§2) Kv1.5: Rb^+ extends the hyperpolarization phase. This means that the inwardly directed K^+ flux is more prolonged and increases the possibility of complementing the growth deficiency.
HERG: Cs^+ extends the hyperpolarization phase. This means that the inwardly directed K^+ flux is more prolonged and increases the possibility of complementing the growth deficiency. This channel is inhibited by Cs^+. IRK1: Cs^+ blocks this channel.

[2] = molecular target: T2, gpIRK1 (Cavia porcellus, UniProt P52185); experiment: Complementation of growth deficiency by gpIRK1 in the presence of CsCl; type: cell-based, guinea pig; conditions: 2 mM CsCl
T2 construct: expressed in transfected cells; host or cells: Saccharomyces cerevisiae Δtrk1 Δtrk2 (YM193) and Δtrk1 Δtrk2 Δtok1 (YM198), vector p423-GPD3
T2 sequence (P52185 1-427): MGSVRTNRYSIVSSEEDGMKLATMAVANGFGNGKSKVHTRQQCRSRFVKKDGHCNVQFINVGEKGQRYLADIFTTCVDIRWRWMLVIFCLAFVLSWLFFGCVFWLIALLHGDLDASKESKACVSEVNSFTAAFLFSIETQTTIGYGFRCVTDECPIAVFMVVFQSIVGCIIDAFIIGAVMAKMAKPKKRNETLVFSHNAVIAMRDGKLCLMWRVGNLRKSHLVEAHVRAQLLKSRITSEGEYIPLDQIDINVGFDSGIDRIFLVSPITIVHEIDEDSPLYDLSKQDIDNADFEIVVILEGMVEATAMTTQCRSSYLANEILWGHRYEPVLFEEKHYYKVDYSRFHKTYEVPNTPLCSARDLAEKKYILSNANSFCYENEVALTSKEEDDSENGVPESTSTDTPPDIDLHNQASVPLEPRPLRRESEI
Source text: as §1

[3] = molecular target: T3, human Kv1.5 channel (Homo sapiens, UniProt P22460, DEL187-187/DEL55-55/P188G/P307A/R154P); experiment: Complementation of growth deficiency by Kv1.5 in the presence of activators; type: cell-based
T3 construct: expressed in transfected cells; host or cells: Saccharomyces cerevisiae Δtrk1 Δtrk2 Δtok1 (YM195; also Δtrk1 Δtrk2 YM190), vector p423-GPD3
T3 sequence (P22460 with tags, fused parts or gaps DEL55-55/R154P/DEL187-187/P188G/P307A): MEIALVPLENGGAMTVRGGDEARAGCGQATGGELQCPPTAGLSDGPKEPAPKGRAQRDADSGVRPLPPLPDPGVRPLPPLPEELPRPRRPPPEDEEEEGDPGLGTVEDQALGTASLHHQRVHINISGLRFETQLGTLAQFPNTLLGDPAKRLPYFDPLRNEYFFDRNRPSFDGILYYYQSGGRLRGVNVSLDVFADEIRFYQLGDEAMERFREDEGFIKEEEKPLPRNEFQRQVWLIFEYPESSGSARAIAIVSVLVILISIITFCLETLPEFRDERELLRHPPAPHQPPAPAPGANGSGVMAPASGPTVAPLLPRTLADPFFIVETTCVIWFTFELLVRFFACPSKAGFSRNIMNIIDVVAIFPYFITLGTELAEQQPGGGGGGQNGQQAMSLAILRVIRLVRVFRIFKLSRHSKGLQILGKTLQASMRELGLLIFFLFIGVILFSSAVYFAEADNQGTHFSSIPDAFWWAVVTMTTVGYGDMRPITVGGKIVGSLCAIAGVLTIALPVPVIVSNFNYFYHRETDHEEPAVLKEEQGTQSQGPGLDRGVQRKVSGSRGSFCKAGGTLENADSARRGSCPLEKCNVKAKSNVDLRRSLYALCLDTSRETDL
Source text: as §1, §2
The yeast strains YM 194 and YM 195 were tested in DPM/-HIS/5 mM KCl with 1 mM RbCl for the different growth behavior in liquid medium. To this end, 10 ml of overnight culture were set up in DPM/-HIS/80 mM KCl and, next morning, brought to an OD600 of 0.05 with the relevant media (final volume: 20 ml). The optical density at 600 nm was determined at defined intervals with the aid of a photometer.

[4] = molecular target: T4, human potassium channel ROMK2 (Homo sapiens, UniProt P48048); experiment: Growth of triple mutant Δtrk1Δtrk2Δtok1 expressing ROMK2 (YM256), OD 620 nm; type: cell-based; conditions: 2 mM RbCl
T4 construct: expressed in transfected cells; host or cells: Saccharomyces cerevisiae Δtrk1Δtrk2Δtok1, strain YM256, vector p423GPD
T4 sequence (P48048 1-372 isoform P48048-2): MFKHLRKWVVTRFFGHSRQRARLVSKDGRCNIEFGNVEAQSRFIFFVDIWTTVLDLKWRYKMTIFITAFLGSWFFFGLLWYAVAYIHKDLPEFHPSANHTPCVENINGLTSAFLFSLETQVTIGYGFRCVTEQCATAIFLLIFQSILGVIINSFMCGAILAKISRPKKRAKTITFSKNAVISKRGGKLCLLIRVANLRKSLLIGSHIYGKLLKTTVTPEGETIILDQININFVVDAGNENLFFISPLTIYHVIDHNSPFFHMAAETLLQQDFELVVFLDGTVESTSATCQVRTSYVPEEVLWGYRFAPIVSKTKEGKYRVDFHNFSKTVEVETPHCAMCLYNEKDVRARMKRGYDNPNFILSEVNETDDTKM
Source text: The human potassium channel ROMK2 ((Shuck, M. E. et al., 1994; Bock, J. H. et al., 1997); Sequence SEQ ID NO. 31 hROMK2) was subcloned into the yeast vector p423GPD and transformed into the triple mutant Δtrk1Δtrk2Δtok1.

[5] = tested on: triple mutant Δtrk1Δtrk2Δtok1 with p423GPD; experiment: Growth of triple mutant Δtrk1Δtrk2Δtok1 with blank vector p423GPD (YM194), OD 620 nm; type: cell-based, Saccharomyces cerevisiae; conditions: 2 mM RbCl; DPM-HIS 5 mM KCl, pH 6.5, 24 hours growth, starting OD 0.01
Protocol: The cell density was measured after 24 hours' growth (density of the starter culture: 0.01 OD620) via determination of the optical density at a wavelength of 620 nm. The values corresponded to the average of in each case 4 measurements±SD.

Row | Compound | complementation of the growth deficiency of the Δtrk1 Δtrk2 Δtok1 mutant by human HERG1 in the presence of activator [1] | complementation of the growth deficiency by gpIRK1 in the presence of CsCl [2] | complementation of the growth deficiency by Kv1.5 in the presence of CsCl ([3]; 2 mM CsCl) | 256 (average growth of p423GPD-ROMK2 strain YM256, OD) ([4]; DPM-HIS 5 mM KCl, pH 6.5, 24 hours growth, starting OD 0.01) | Signal to noise ratio S/N ([4]; YM256 versus YM194, DPM-HIS 5 mM KCl, pH 6.5, 24 hours) | complementation of the growth deficiency of the Δtrk1 Δtrk2 Δtok1 mutant by human Kv1.5 in the presence of activator ([3]; 2 mM RbCl, culture plates, DPM 5 mM KCl pH 6.5, FIG. 3) | 194 (average growth of p423GPD strain YM194, OD) [5]
1 | [Cl-].[Cs+] [CsCl] | fully complementing | inhibited | inhibited |  |  |  | 
2 | [Cl-].[Rb+] [RbCl] |  |  |  | 0.44 | 8.46 | fully complementing | 0.048
